# According to patent US9205132B2, “Method of lowering mortality” (CORTHERA, INC., priority 2008, dated 2015):
# Entries after “also recorded” stand apart in the source; their conditions may differ.
# Tests used:
# [1] = system: patients with systemic sclerosis; assay: Clinical trial of relaxin in patients with systemic sclerosis, continuous SQ infusion for six months; format: in vivo, human
# Source text: Overview. Clinical trials with relaxin have also been conducted on systemic sclerosis patients, 257 human subjects who suffer from systemic sclerosis, a serious fibrotic disease, have been treated with relaxin by continuous and subcutaneous (SQ) infusion for six months. […] These findings support the hypothesis that relaxin administration was associated with balanced systemic and renal vasodilation.
# [2] = system: patients with acute heart failure (AHF); assay: Patient-reported dyspnea (7-point Likert Scale, 100-mm VAS), Pre-RELAX-AHF trial; format: in vivo, human; conditions: for average improvement in dyspnea VAS over the 5 days: corresponds to AUC to Day 5; for average change in dyspnea VAS over the 14 days: corresponds to AUC to Day 14; for Dyspnea AUC Change from baseline to Day 5 (VAS; mm*hr) / Dyspnea AUC Change from baseline to Day 14 (VAS; mm*hr): mean ± SD
# Experimental: Study Procedures. The study was approved by the relevant ethics committees, institutional review hoards and regulatory authorities, and conducted under the International Conference on Harmonization Good Clinical Practice guidelines. All patients provided informed written consent prior to participation. […] The placebo used for the study was the same solution as the diluent used to prepare the 100 μg/kg/day dose. The randomization ratio was 3:2:2:2:2, respectively, Relaxin (Corthera, San Mateo, Calif.) was manufactured using recombinant techniques and was identical to the naturally-occurring peptide hormone. By protocol, the study drug infusion was to be terminated if the patient's SBP was reduced to <100 mmHg or by >40 mmHg compared to baseline in two successive measurements, 15 minutes apart. Investigators were not prohibited from utilizing any standard medication, thought necessary to treat patients enrolled in the study, including additional vasodilators, following a 4-hour washout period during which time IV vasodilators, IV pure inotropes and meals were withheld, hemodynamic, renal, and clinical responses to 48 hours of study drug infusion were assessed.
# Study Endpoints. […] 4.) Length of initial hospital stay.
# Dyspnea Responses. Results are presented via the Visual Analog Score (VAS) and the Likert Score. The VAS score measures a characteristic of attitude that ranges across a continuum of values, for example, the amount of discomfort an AHF patient feels ranges across a continuum from none to an extreme amount of discomfort and/or pain including dyspnea, hypertension, high blood pressure, arrhythmia and reduced renal blood flow. From the patient's perspective this spectrum appears continuous, which the VAS captures. Operationally a VAS is usually a horizontal line, 100 mm in length, anchored by word descriptors at each end (e.g., no discomfort on one end and severe discomfort on the other end). The patients marked on the line the point that they fell represented their perception of their current state. The VAS score is determined by measuring in millimeters from the left hand end of the line to the point that the patient marks (Wewers et al., Research in Nursing and Health 13:227-236, 1990).
# The Likert Score is a unidimensional sealing method known in the art, wherein the set of scale items are rated on a numerical (herein 7-point) Disagree-Agree response scale. Each patient was asked to rate each item on the response scale. The final score for the respondents on the scale is the sum of their ratings for all of the items.
# [3] = system: patients with acute heart failure (AHF); assay: Post-discharge outcomes to Day 60 and Day 180 (death, rehospitalization), Pre-RELAX-AHF trial; conditions: for Days alive out of hospital: Day 60, mean ± SD
# Experimental: Patient-reported dyspnea was assessed using both a standard 7-point Likert Scale and a standard 100-mm Visual Analog Scale (VAS). Assessments were performed at baseline (VaS only), 6 h, 12 h, 24 h, 48 h after initiation of drug therapy and at Days 3, 4, 5 and 14. Questionnaires were administered in the local language, and investigators received training in the standardized administration of these evaluations. Daily, serial physician-reported assessments of heart failure signs and symptoms were, conducted including jugular venous distension, rales, edema, orthopnea, and dyspnea on exertion, in-hospital worsening heart failure was defined as a physician-determined assessment based on worsening symptoms or signs of heart failure and the need for the addition or institution of IV medications or mechanical support to treat AHF. Vital status and rehospitalization information was collected by telephone at Day 30, Day 60 and (vital status only at.) Day 180. When the last enrolled patient reached Day 60, telephone contact was made with all patients who were between Day 60 and Day 180 of follow-up to complete the study.
# 1.) Relief of dyspnea, assessed with two complementary Instruments; (a) Change in dyspnea by Likert scale, and (b) Change from baseline by Visual Analog Scale. 2.) In-hospital worsening heart failure (WMF) to Day 5. […] 4.) Length of initial hospital stay. 5.) Days alive and out-of-hospital to Day 60. 6.) Death due to cardiovascular causes or rehospitalization for heart failure or renal failure to Day 60. 7.) Mortality due to cardiovascular causes to Day 180. In addition, serial assessments of safety were performed including vital-signs, physical examinations, adverse events and clinical laboratory evaluations.
# Data are presented as means with standard deviations unless otherwise specified. Missing data were generally imputed by a last-observation-carried-forward approach. The worst observed dyspnea Likert or VAS score was carried forward from the time of death or worsening heart failure. The area under the curve representing the change in VAS score from baseline through Day 5 was computed by trapezoidal rule. For patients who died during the initial hospitalization, length of stay was imputed as the maximum observed plus 1 day (33 days). […] To control for regional variations in this relatively small study, region as a covariate or stratifying variable was prospectively pre-specified in the analyses of treatment effect. Rehospitalization and mortality rates through Day 180 were estimated using Kaplan-Meier (product-limit) methods, and groups compared using the Wald test of the treatment effect from Cox regression models, where time-to-event was censored at last patient contact for patients without the event of interest.
# [4] = 30 mcg/kg/d IV 48 h, listed as relaxin
substance,measurement,setting,value
Relaxin,blood pressure,[1],stable decreases in blood pressure
same,hypotensive events,[1],did not experience any serious hypotensive events; also recorded: None of the patients developed hypotension during dosing
same,predicted creatinine clearance (renal function),[1],statistically significant increase in predicted creatinine clearance; also recorded: stable improvement in renal function
same,"percent moderate or marked improvement in dyspnea (Likert), sustained over 14 days","[2]; 30 μg/kg/day, AHF patients with SBP greater than the median, FIG. 7",about 90%
same,"improvement in dyspnea within 6, 12 and 24 hours of administration","[2]; 30 μg/kg/day, FIG. 12",statistically significant improvement in dyspnea
same,"% moderately/markedly better dyspnea at 6, 12 and 24 hrs (Likert)",[2]; 10 mcg/kg/d IV 48 h,27.5%
same,average improvement in dyspnea VAS over the 5 days,[2]; 10 mcg/kg/d IV 48 h,21 mm
same,average change in dyspnea VAS over the 14 days,[2]; 10 mcg/kg/d IV 48 h,10 mm
same,Dyspnea AUC Change from baseline to Day 5 (VAS; mm*hr),[2]; 10 mcg/kg/d IV 48 h,2500 ± 2908 mm*hr
same,Dyspnea AUC Change from baseline to Day 14 (VAS; mm*hr),[2]; 10 mcg/kg/d IV 48 h,6366 ± 10078 mm*hr
same,"% moderately/markedly better dyspnea at 6, 12 and 24 hrs (Likert)",[2]; 30 mcg/kg/d IV 48 h,40.5%
same,average improvement in dyspnea VAS over the 5 days,[2]; 30 mcg/kg/d IV 48 h,22 mm
same,average change in dyspnea VAS over the 14 days,[2]; 30 mcg/kg/d IV 48 h,25 mm
same,"% moderately/markedly better dyspnea at 6, 12 and 24 hrs (Likert)",[2]; [4],40.5%
same,Dyspnea AUC Change from baseline to Day 5 (VAS; mm*hr),[2]; 30 mcg/kg/d IV 48 h,2567 ± 2898 mm*hr
same,Dyspnea AUC Change from baseline to Day 14 (VAS; mm*hr),[2]; 30 mcg/kg/d IV 48 h,8214 ± 8712 mm*hr
same,Dyspnea AUC Change from baseline to Day 5 (VAS; mm*hr),[2]; [4],2567±2898 mm*hr
same,Dyspnea AUC Change from baseline to Day 14 (VAS; mm*hr),[2]; [4],8214±8712 mm*hr
same,"% moderately/markedly better dyspnea at 6, 12 and 24 hrs (Likert)",[2]; 100 mcg/kg/d IV 48 h,13.5%
same,average improvement in dyspnea VAS over the 5 days,[2]; 100 mcg/kg/d IV 48 h,21 mm
same,average change in dyspnea VAS over the 14 days,[2]; 100 mcg/kg/d IV 48 h,25 mm
same,Dyspnea AUC Change from baseline to Day 5 (VAS; mm*hr),[2]; 100 mcg/kg/d IV 48 h,2486 ± 2865 mm*hr
same,Dyspnea AUC Change from baseline to Day 14 (VAS; mm*hr),[2]; 100 mcg/kg/d IV 48 h,8227 ± 9707 mm*hr
same,"% moderately/markedly better dyspnea at 6, 12 and 24 hrs (Likert)",[2]; 250 mcg/kg/d IV 48 h,22.4%
same,average improvement in dyspnea VAS over the 5 days,[2]; 250 mcg/kg/d IV 48 h,18 mm
same,average change in dyspnea VAS over the 14 days,[2]; 250 mcg/kg/d IV 48 h,21 mm
same,Dyspnea AUC Change from baseline to Day 5 (VAS; mm*hr),[2]; 250 mcg/kg/d IV 48 h,2155 ± 2338 mm*hr
same,Dyspnea AUC Change from baseline to Day 14 (VAS; mm*hr),[2]; 250 mcg/kg/d IV 48 h,6856 ± 7923 mm*hr
same,time at which a beneficial effect on dyspnea was first seen,"[2]; AHF patients with CrCl less than the median, FIG. 8",6 h
same,time at which a beneficial effect on dyspnea was first seen,"[2]; AHF patients with SBP greater than the median, FIG. 7",6 h
same,onset of improvement in dyspnea,[2]; all relaxin-treated AHF patients,≤ 6 h
same,serum concentration at which relaxin was shown to be fully effective,[2]; see FIG. 6,3 to 6 ng/mL
same,"estimated hazard reduction, death due to cardiovascular causes or rehospitalization due to heart failure or renal failure at day 60","[3]; 30 mcg/kg/d IV 48 h, vs placebo",87%
same,Days alive out of hospital,[3]; 10 mcg/kg/d IV 48 h,47.0 ± 13.0 days
same,Days alive out of hospital,[3]; 30 mcg/kg/d IV 48 h,47.9 ± 10.1 days
same,Days alive out of hospital,[3]; 100 mcg/kg/d IV 48 h,48 ± 10.1 days
same,Days alive out of hospital,[3]; 250 mcg/kg/d IV 48 h,47.6 ± 12.0 days
same,All-cause death (KM %),"[3]; Day 180, 10 mcg/kg/d IV 48 h",5.0%
same,"mean number of days alive and out-of-hospital at Day 60, greater than placebo",[3]; relaxin-treated patients vs placebo,approximately 4 days
